pIC50: −log10 of the molar value.
test system: β-catenin-TCF-mediated reporter transcription activity in Colo 205 cells; experiment: Colo 205 reporter assay (TCF/LEF luciferase); type: cell-based; conditions: Homo sapiens, COLO 205, 5 h, Colo 205 TCF/LEF luciferase reporter, five hours after addition of compound; read-out: TCF reporter Colo205 IC50
Procedure, shortened: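 Luciferase signal from a TCF/LEF-driven reporter, stably integrated in Colo 205 colon cancer cells, was measured 5 h after compound addition.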

SMILES | pIC50
Cc1nc(NCc2ncn(Cc3cc(F)c(F)c(F)c3)n2)nc2c1NC(=O)[C@H](C(C)C)N2C [Compound 490, (S)-7-isopropyl-4,8-dimethyl-2-(((1-(3,4,5-trifluorobenzyl)-1H-1,2,4-triazol-3-yl)methyl)amino)-7,8-dihydropteridin-6(5H)-one] | ≤ 5.30
Cc1nc(N[C@H]2CC[C@H](N(C)c3ccc(C(F)(F)F)cc3)C2)nc2c1NC(=O)[C@H](C(C)C)N2C [Compound 503, (S)-7-isopropyl-4,8-dimethyl-2-(((1S,3S)-3-(methyl(4-(trifluoromethyl)phenyl)amino)cyclopentyl)amino)-7,8-dihydropteridin-6(5H)-one] | 5.30 to 6.00
Cc1nc(N[C@@H]2CC[C@H](N(C)c3ccc(C(F)(F)F)cc3)C2)nc2c1NC(=O)[C@H](C(C)C)N2C [Compound 505, (S)-7-isopropyl-4,8-dimethyl-2-(((1R,3S)-3-(methyl(4-(trifluoromethyl)phenyl)amino)cyclopentyl)amino)-7,8-dihydropteridin-6(5H)-one] | 5.30 to 6.00
Cc1nc(N[C@H]2CCc3c2cnn3Cc2ccc(C(F)(F)F)nc2)nc2c1NC(=O)[C@H](C(C)C)N2C [Compound 519, (S)-7-isopropyl-4,8-dimethyl-2-(((S)-1-((6-(trifluoromethyl)pyridin-3-yl)methyl)-1,4,5,6-tetrahydrocyclopenta[c]pyrazol-4-yl)amino)-7,8-dihydropteridin-6(5H)-one] | 5.30 to 6.00
Cc1nc(N[C@@H]2CCc3c2cnn3Cc2ccc(C(F)(F)F)nc2)nc2c1NC(=O)[C@H](C(C)C)N2C [Compound 520, (S)-7-isopropyl-4,8-dimethyl-2-(((R)-1-((6-(trifluoromethyl)pyridin-3-yl)methyl)-1,4,5,6-tetrahydrocyclopenta[c]pyrazol-4-yl)amino)-7,8-dihydropteridin-6(5H)-one] | ≤ 5.30
Cc1nc(N[C@H]2CCc3nn(Cc4ccc(C(F)(F)F)nc4)cc32)nc2c1NC(=O)[C@H](C(C)C)N2C [Compound 521, (S)-7-isopropyl-4,8-dimethyl-2-(((S)-2-((6-(trifluoromethyl)pyridin-3-yl)methyl)-2,4,5,6-tetrahydrocyclopenta[c]pyrazol-4-yl)amino)-7,8-dihydropteridin-6(5H)-one] | 5.30 to 6.00
Cc1nc(N[C@H]2C[C@H](NC(=O)N3CCC(F)(F)CC3)C2)nc2c1NC(=O)[C@H](C(C)C)N2C [Compound 523, 4,4-difluoro-N-(trans-3-(((S)-7-isopropyl-4,8-dimethyl-6-oxo-5,6,7,8-tetrahydropteridin-2-yl)amino)cyclobutyl)piperidine-1-carboxamide] | ≤ 5.30
Cc1nc(N[C@H]2C[C@H](NC(=O)NC3CCC(F)(F)CC3)C2)nc2c1NC(=O)[C@H](C(C)C)N2C [Compound 524, 1-(4,4-difluorocyclohexyl)-3-(trans-3-(((S)-7-isopropyl-4,8-dimethyl-6-oxo-5,6,7,8-tetrahydropteridin-2-yl)amino)cyclobutyl)urea] | ≤ 5.30
Cc1nc(N[C@H]2C[C@@H](NC(=O)N3CCC(F)(F)CC3)C2)nc2c1NC(=O)[C@H](C(C)C)N2C [Compound 525, 4,4-difluoro-N-(cis-3-(((S)-7-isopropyl-4,8-dimethyl-6-oxo-5,6,7,8-tetrahydropteridin-2-yl)amino)cyclobutyl)piperidine-1-carboxamide] | ≤ 5.30
Cc1nc(N[C@H]2C[C@@H](NC(=O)NC3CCC(F)(F)CC3)C2)nc2c1NC(=O)[C@H](C(C)C)N2C [Compound 526, 1-(4,4-difluorocyclohexyl)-3-(cis-3-(((S)-7-isopropyl-4,8-dimethyl-6-oxo-5,6,7,8-tetrahydropteridin-2-yl)amino)cyclobutyl)urea] | ≤ 5.30
Cc1nc(N[C@H]2C[C@H](Nc3nccc(C(F)(F)F)n3)C2)nc2c1NC(=O)[C@H](C(C)C)N2C [Compound 529, (S)-7-isopropyl-4,8-dimethyl-2-((trans-3-((4-(trifluoromethyl)pyrimidin-2-yl)amino)cyclobutyl)amino)-7,8-dihydropteridin-6(5H)-one] | 5.30 to 6.00

More lines, now with the values ahead:

pIC50 | SMILES
6.00 to 6.52 | Cc1nc(NCc2cnn(CCCc3ccc(C(F)(F)F)nc3)c2)nc2c1NC(=O)[C@H](C)N2C [Compound 492, (S)-4,7,8-trimethyl-2-(((1-(3-(6-(trifluoromethyl)pyridin-3-yl)propyl)-1H-pyrazol-4-yl)methyl)amino)-7,8-dihydropteridin-6(5H)-one]
5.30 to 6.00 | [2H]C([2H])(O)c1nc(NCc2cnn(Cc3ccc(C(F)(F)F)nc3)c2)nc2c1NC(=O)[C@H](C)N2C [Compound 493, (7S)-4-(hydroxymethyl-d2)-7,8-dimethyl-2-(((1-((6-(trifluoromethyl)pyridin-3-yl)methyl)-1H-pyrazol-4-yl)methyl)amino)-7,8-dihydropteridin-6(5H)-one]
> 6.52 | [2H]C([2H])([2H])c1nc(NCc2cnn(Cc3ccc(C(F)(F)F)nc3)c2)nc2c1NC(=O)[C@H](C)N2C [Compound 494, (7S)-7,8-dimethyl-4-(methyl-d3)-2-(((1-((6-(trifluoromethyl)pyridin-3-yl)methyl)-1H-pyrazol-4-yl)methyl)amino)-7,8-dihydropteridin-6(5H)-one]
> 6.52 | Cc1nc(NCc2cnn(Cc3ccc(C(F)(F)F)nc3)c2)nc2c1NC(=O)[C@H](CC(F)(F)F)N2C [Compound 495, (S)-4,8-dimethyl-7-(2,2,2-trifluoroethyl)-2-(((1-((6-(trifluoromethyl)pyridin-3-yl)methyl)-1H-pyrazol-4-yl)methyl)amino)-7,8-dihydropteridin-6(5H)-one]
6.00 to 6.52 | CC[C@H]1C(=O)Nc2cnc(NCc3cnn(Cc4ccc(C(F)(F)F)nc4)c3)nc2N1C(C)C [Compound 497, (7S)-7-ethyl-8-isopropyl-2-(((1-((6-(trifluoromethyl)pyridin-3-yl)methyl)-1H-pyrazol-4-yl)methyl)amino)-7,8-dihydropteridin-6(5H)-one]
> 6.52 | CO[C@H](C)[C@H]1C(=O)Nc2c(C)nc(NCc3cnn(Cc4ccc(C(F)(F)F)nc4)c3)nc2N1C [Compound 498, (S)-7-((R)-1-methoxyethyl)-4,8-dimethyl-2-(((1-((6-(trifluoromethyl)pyridin-3-yl)methyl)-1H-pyrazol-4-yl)methyl)amino)-7,8-dihydropteridin-6(5H)-one]
5.30 to 6.00 | Cc1nc(N[C@H]2CC[C@@H](N(C)c3ccc(C(F)(F)F)cc3)C2)nc2c1NC(=O)[C@H](C(C)C)N2C [Compound 502, (S)-7-isopropyl-4,8-dimethyl-2-(((1S,3R)-3-(methyl(4-(trifluoromethyl)phenyl)amino)cyclopentyl)amino)-7,8-dihydropteridin-6(5H)-one]
6.00 to 6.52 | Cc1nc(N[C@@H]2CC[C@@H](N(C)c3ccc(C(F)(F)F)cc3)C2)nc2c1NC(=O)[C@H](C(C)C)N2C [Compound 504, (S)-7-isopropyl-4,8-dimethyl-2-(((1R,3R)-3-(methyl(4-(trifluoromethyl)phenyl)amino)cyclopentyl)amino)-7,8-dihydropteridin-6(5H)-one]
6.00 to 6.52 | Cc1nc(N[C@H]2C[C@H](c3ccc(OC(F)(F)F)cc3)C2)nc2c1NC(=O)[C@H](C)N2C [Compound 506, (7S)-4,7,8-trimethyl-2-(((trans)-3-(4-(trifluoromethoxy)phenyl)cyclo-butyl)amino)-7,8-dihydropteridin-6(5H)-one]
> 6.52 | Cc1nc(N[C@H]2C[C@@H](c3ccc(OC(F)(F)F)cc3)C2)nc2c1NC(=O)[C@H](C)N2C [Compound 507, (7S)-4,7,8-trimethyl-2-(((cis)-3-(4-(trifluoromethoxy)phenyl)cyclo-butyl)amino)-7,8-dihydropteridin-6(5H)-one]
6.00 to 6.52 | Cc1nc(NCc2cc(C)n(Cc3ccc(F)cc3)c2C)nc2c1NC(=O)[C@H](C(C)C)N2C [Compound 508, (S)-2-(((1-(4-fluorobenzyl)-2,5-dimethyl-1H-pyrrol-3-yl)methyl)amino)-7-isopropyl-4,8-dimethyl-7,8-dihydropteridin-6(5H)-one]
> 6.52 | Cc1nc(NCc2cnn(Cc3ccc(OC(F)(F)F)nc3)c2)nc2c1NC(=O)[C@H](C(C)C)N2C [Compound 510, (S)-7-isopropyl-4,8-dimethyl-2-(((1-((6-(trifluoromethoxy)pyridin-3-yl)methyl)-1H-pyrazol-4-yl)methyl)amino)-7,8-dihydropteridin-6(5H)-one]
> 6.52 | Cc1nc(N[C@H]2C[C@@H](Cn3nccc3C(F)(F)F)C2)nc2c1NC(=O)[C@H](C(C)C)N2C [Compound 512, (S)-7-isopropyl-4,8-dimethyl-2-((cis-3-((5-(trifluoromethyl)-1H-pyrazol-1-yl)methyl)cyclobutyl)amino)-7,8-dihydropteridin-6(5H)-one]
> 6.52 | Cc1nc(N[C@H]2C[C@@H](NC(=O)Cc3cc(F)c(F)c(F)c3)C2)nc2c1NC(=O)[C@H](C(C)C)N2C [Compound 514, N-(cis-3-(((S)-7-isopropyl-4,8-dimethyl-6-oxo-5,6,7,8-tetrahydropteridin-2-yl)amino)cyclobutyl)-2-(3,4,5-trifluorophenyl)acetamide]
> 6.52 | Cc1nc(N[C@H]2C[C@H](NC(=O)Cc3cc(F)c(F)c(F)c3)C2)nc2c1NC(=O)[C@H](C(C)C)N2C [Compound 515, N-(trans-3-(((S)-7-isopropyl-4,8-dimethyl-6-oxo-5,6,7,8-tetrahydropteridin-2-yl)amino)cyclobutyl)-2-(3,4,5-trifluorophenyl)acetamide]
> 6.52 | CC[C@H]1C(=O)Nc2c(C)nc(NCc3cnn(Cc4ccc(C(F)(F)F)o4)c3)nc2N1C [Compound 516, (S)-7-ethyl-4,8-dimethyl-2-(((1-((5-(trifluoromethyl)furan-2-yl)methyl)-1H-pyrazol-4-yl)methyl)amino)-7,8-dihydropteridin-6(5H)-one]
6.00 to 6.52 | Cc1nc(N[C@H]2C[C@@H](Nc3nccc(C(F)(F)F)n3)C2)nc2c1NC(=O)[C@H](C(C)C)N2C [Compound 527, (S)-7-isopropyl-4,8-dimethyl-2-((cis-3-((4-(trifluoromethyl)pyrimidin-2-yl)amino)cyclobutyl)amino)-7,8-dihydropteridin-6(5H)-one]
